Measurements published in paper PMC2749869, “Reversal of oncogene transformation and suppression of tumor growth by the novel IGF1R kinase inhibitor A-928605” (BMC Cancer, 2009).
“Also recorded” adds a separate entry of the source. Blank lines part the entries; values can stand above or below the compound they belong to.

Legend:
NIH-3T3 CD8-IGF1R cells [1] = assay: Three day proliferation assay (MTS), NIH-3T3 CD8-IGF1R cells; type: cell-based
Method: (§1) Cells grown in soft agar were plated at 5,000 cells/well in 12-well tissue culture plates in a top layer of 0.3% noble agar on a 0.7% bottom layer. Media containing the final desired concentration of small molecule inhibitor was used as the agar overlay. For proliferation assays, 5,000 cells per well were plated in 96-well tissue culture treated plates and allowed to attach overnight. The following day small molecule inhibitors or DMSO control were added in duplicate at the indicated concentrations and cells were placed in tissue culture incubators for 72 hours. Cell viability was determined by an MTS assay (CellTiter Aqueous One, Promega, Madison, WI).
(§2) All cells were grown in normal growth media containing 10% FBS. B, Cells were treated for 1 hour with A-928605 in a dose response analysis as shown. The CD8-IGF1R fusion protein runs as a doublet. C and D, Three day proliferation assay in the NIH-3T3 vector control cells (C) or CD8-IGF1R cells (D) with increasing amounts of six clinical small molecule inhibitors and A-928605. Compounds were run in duplicate at each indicated concentration. Results are representative of 5 separate assays. Intended targets of each small molecule inhibitor are as follows: lapatinib, ERBB2 and EGFR; gefitinib, EGFR; dasatinib, ABL and SRC; Sorafinib, multi-targeted; imatinib, ABL and KIT; erlotinib, EGFR.

[2] = system: NIH-3T3 vector control cells; assay: Three day proliferation assay (MTS), NIH-3T3 vector control cells; type: cell-based; conditions: 72 hours
Method: as §1, §2

IGF1R and IR = assay: IGF1R versus IR in vitro enzyme activity and cellular phosphorylation; conditions: in vitro enzyme activity and cellular phosphorylation (data not shown)
NIH-3T3 CD8-IGF1R cells [3] = assay: Morphology of CD8-IGF1R cells (phase contrast imaging); type: cell-based; conditions: increasing concentrations, imaging two days after addition
Method: Supplementary file 1471-2407-9-314-S1.jpeg: Additional File 1 Supplementary Figure S1. Transformed morphology of the CD8-IGF1R cells. A, Phase contrast images of the NIH-3T3 vector control cells versus the NIH-3T3 CD8-IGF1R cells. B, Morphological dose response of the CD8-IGF1R line to A-928605 treatment. Cells were plated and allowed to adhere and proliferate overnight. The next day compound was added and imaging was performed two days later. The cellular morphology appears to revert back towards a naive 3T3 fibroblast at concentrations near or […] the IC50 of A-928605. All images were captured with a 20× objective. Click here for file

MiaPaCa-2 flank tumors = assay: MiaPaCa-2 pancreatic xenograft flank model; type: in vivo, mice; conditions: A-928605 37.5 mg/kg i.p. b.i.d. 20 days; cetuximab 30 mg/kg i.p. 3×/week, 6 doses
Method: All animal studies were conducted in accordance with the guidelines established by the internal Institutional Animal Care and Use Committees. For CD8 IGF1R flank tumors, 5.0 × 10^5 cells/mouse were mixed with an equal volume of Matrigel (BD Biosciences) and injected subcutaneously into the flank of 6- to 8-week-old female nu/nu mice (22 g; Charles River Laboratories). The tumors were allowed to grow approximately 225 mm^3, and mice were reassigned into treatment groups (N = 10) based on tumor volume. At the initiation of treatment, the mean tumor volume ± SEM of the groups was approximately 231 ± 10 mm^3. For MiaPaCa-2 flank tumors, 1.0 × 10^6 cells/mouse were mixed with an equal volume of Matrigel and injected subcutaneously into the flank of 6- to 8-week-old female SCID mice (20 g; Charles River Laboratories). The tumors were allowed to grow approximately 225 mm^3, and mice were reassigned into treatment groups (N = 10) based on tumor volume. […] In all flank models, tumor growth was periodically analyzed by measurement with digital calipers and tumor volume was estimated from the formula (L × W ^2)/2. For all flank models, the effect of treatment on tumor growth rate was assessed by determining %T/C [(mean tumor volume of treated group on day X ÷ mean tumor volume of control group on day X) × 100]. […]

NIH-3T3 CD8-IGF1R cells [4] = assay: Soft agar anchorage-independent growth assay; type: cell-based; conditions: 1 μM, three weeks
Method: as §1
Supplementary file 1471-2407-9-314-S2.jpeg: Additional File 2 Supplementary Figure S2. […] Cells were plated in soft agar with an overlay containing DMSO control (left) or a final concentration of 1 μM A-928605 (right). Cells were allowed to grow in a tissue culture incubator for three weeks before imaging. The 3T3 vector control line was not capable of anchorage-independent growth in soft agar (data not shown). Click here for file

CD8-IGF1R = target: T1, CD8-IGF1R (Homo sapiens, UniProt P01732+P08069); assay: Western blot of IGF1R pathway phosphorylation and Cyclin D1 in NIH-3T3 CD8-IGF1R cells; type: cell-based, mouse; design: phosphorylation of the IGF1R cytotail, AKT and ERK1/2 / Cyclin D1 expression: dose or concentration left out as unconfirmed
T1 construct: cytoplasmic domain of human IGF1R (amino acids 959-1368); expressed in transfected cells
T1 sequence (P01732+P08069 fused): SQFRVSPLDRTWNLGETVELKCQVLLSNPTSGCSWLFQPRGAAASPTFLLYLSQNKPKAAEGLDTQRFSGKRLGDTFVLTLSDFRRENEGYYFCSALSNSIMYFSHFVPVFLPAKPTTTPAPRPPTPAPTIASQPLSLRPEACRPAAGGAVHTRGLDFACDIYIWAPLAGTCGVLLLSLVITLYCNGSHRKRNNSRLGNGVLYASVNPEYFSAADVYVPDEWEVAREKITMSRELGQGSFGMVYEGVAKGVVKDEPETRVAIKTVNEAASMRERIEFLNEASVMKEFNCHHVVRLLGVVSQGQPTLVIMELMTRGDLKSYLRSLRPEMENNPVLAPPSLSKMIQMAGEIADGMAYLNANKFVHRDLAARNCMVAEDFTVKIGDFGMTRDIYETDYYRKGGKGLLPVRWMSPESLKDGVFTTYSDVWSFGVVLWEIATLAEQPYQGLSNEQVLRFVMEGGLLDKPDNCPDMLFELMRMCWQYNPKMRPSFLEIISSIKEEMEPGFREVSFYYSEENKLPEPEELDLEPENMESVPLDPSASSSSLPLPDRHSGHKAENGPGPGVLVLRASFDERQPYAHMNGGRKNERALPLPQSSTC
Method: NIH-3T3, SK-N-FI, MiaPaCa-2 and HCC827 cell lines were obtained from the American Type Culture Collection (ATCC, Manassas, VA). Cell lines were cultured and expanded in media according to ATCC guidelines. CD8-IGF1R was generated by an in-frame fusion of the extracellular and transmembrane domains of the human CD8α coding sequence (amino acids 1-207) followed by a BamHI restriction site to the cytoplasmic domain of human IGF1R (amino acids 959-1368). This product was cloned into the pIRESpuro3 vector (Clontech, Mountain View, CA) via AflII/NotI adaptors. NIH-3T3 CD8-IGF1R and vector control lines were generated by transfection of these constructs with FuGENE 6 (Roche Diagnostics, Basel, Switzerland) followed by selection with 2 μg/ml puromycin. Cells were dilution cloned and surviving colonies were screened for expression of the transgene. Cell clones positive for CD8-IGF1R expression and vector alone transfectants were pooled and remained under puromycin selection for the duration of the study.
Antibodies used included rabbit anti-ERK1/2 pTpY185/187 (Biosource, Camarillo, CA), rabbit anti-IGF-1Rβ and rabbit anti-Cyclin D1 (Santa Cruz Biotechnology, Inc., Santa Cruz, CA), rabbit anti-phospho-IGF-1Rβ (Tyr1135/1136)/IR (Tyr1150/1151), rabbit antiphospho-AKT (S473), rabbit anti-AKT, rabbit anti-ERK1/2, (Cell Signaling Technology, Inc., Beverly, MA) and mouse anti-ACTIN (Sigma, St. Louis, MO). All cell lysate samples were lysed directly in 2× LDS NuPAGE sample buffer with reducing reagent (Invitrogen, Carlsbad, CA) and were analyzed for levels of phosphorylated and total signaling proteins by Western blotting using the NuPAGE electrophoresis and transfer systems (Invitrogen, Carlsbad, CA) and near infrared detection.
All cells were grown in normal growth media containing 10% FBS. B, Cells were treated for 1 hour with A-928605 in a dose response analysis as shown. The CD8-IGF1R fusion protein runs as a doublet. […]

[5] = target: T2, epidermal growth factor receptor (EGFR) (Homo sapiens, UniProt P00533); assay: Cellular EGFR phosphorylation in A-431 and HCC827 cells; type: cell-based; conditions: A-431 cells; read-out: IC50 for inhibition of cellular EGFR phosphorylation
T2 construct: endogenous in cells; host or cells: A-431 and HCC827 cells

[6] = target: T3, epidermal growth factor receptor (EGFR) (Homo sapiens, UniProt P00533, DEL746-750); assay: as above; type: cell-based; conditions: HCC827 cells; read-out: IC50 for inhibition of cellular EGFR phosphorylation
T3 construct: endogenous in cells; host or cells: A-431 and HCC827 cells
T3 sequence (P00533 with tags, fused parts or gaps DEL746-750): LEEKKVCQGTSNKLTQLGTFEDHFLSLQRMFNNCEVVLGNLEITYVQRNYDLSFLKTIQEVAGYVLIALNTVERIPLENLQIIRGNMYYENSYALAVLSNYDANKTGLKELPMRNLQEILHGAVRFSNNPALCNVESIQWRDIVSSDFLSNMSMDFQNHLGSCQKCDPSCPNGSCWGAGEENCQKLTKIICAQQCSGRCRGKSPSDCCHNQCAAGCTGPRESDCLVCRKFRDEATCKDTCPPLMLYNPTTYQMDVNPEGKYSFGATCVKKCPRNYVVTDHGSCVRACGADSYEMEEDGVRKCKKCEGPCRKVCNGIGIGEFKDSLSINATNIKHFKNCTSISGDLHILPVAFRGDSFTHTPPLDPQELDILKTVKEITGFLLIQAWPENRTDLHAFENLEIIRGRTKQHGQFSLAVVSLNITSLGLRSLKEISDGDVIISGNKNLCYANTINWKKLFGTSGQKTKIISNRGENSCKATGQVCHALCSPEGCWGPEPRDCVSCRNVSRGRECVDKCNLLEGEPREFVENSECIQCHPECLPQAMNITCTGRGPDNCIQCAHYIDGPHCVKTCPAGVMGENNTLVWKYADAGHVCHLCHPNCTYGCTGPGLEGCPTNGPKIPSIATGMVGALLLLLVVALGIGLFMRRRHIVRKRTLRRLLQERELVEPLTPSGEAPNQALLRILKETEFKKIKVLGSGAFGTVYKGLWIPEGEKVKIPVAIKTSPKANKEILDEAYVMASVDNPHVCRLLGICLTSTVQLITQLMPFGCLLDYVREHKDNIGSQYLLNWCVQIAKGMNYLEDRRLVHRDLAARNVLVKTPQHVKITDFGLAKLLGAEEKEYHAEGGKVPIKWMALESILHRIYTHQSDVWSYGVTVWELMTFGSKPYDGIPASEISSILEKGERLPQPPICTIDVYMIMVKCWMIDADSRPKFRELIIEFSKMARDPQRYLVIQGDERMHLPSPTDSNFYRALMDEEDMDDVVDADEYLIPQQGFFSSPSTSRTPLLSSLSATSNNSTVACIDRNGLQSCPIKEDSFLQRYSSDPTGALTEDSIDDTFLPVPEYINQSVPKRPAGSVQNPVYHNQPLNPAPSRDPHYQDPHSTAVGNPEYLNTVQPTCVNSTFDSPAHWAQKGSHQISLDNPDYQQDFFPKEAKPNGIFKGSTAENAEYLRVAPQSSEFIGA

NIH-3T3 CD8-IGF1R cells [7] = assay: DNA microarray analysis, CD8-IGF1R cells; type: cell-based; conditions: 1 μM, 24 hours
Method: Cells were treated with 1 μM of compound or DMSO control ([…] final concentration) and grown under normal conditions for 24 hours. Cells were then directly lysed in QIAzol RNA lysis reagent (Qiagen, Valencia, CA). Samples were homogenized using an Ultra Turrax T 25 homogenizer (IKA, Wilmington, SC) and then processed with the RNeasy 96 Universal Tissue 8000 kit (Qiagen, Valencia, CA) using a BioRobot 3000 liquid handler (Qiagen, Valencia, CA) and a Sigma 4K15C centrifuge (Sigma, Osterode am Harz, Germany) according to the Qiagen-prescribed protocol. […] GeneChip Operating Software (v1.4.036) was used to quantify perfect match and mismatch features on the scanned microarray images. After quantification, quality control was assured using the Affymetrix Power Tools Quality Reporter (v1.0.04) quality control metrics.
Data normalization and analysis were performed using Resolver 7.0 software (Rosetta Inpharmatics, Seattle, WA). Ratios were built for the average of each treatment versus the group average and a p-value was calculated for every-fold change using the Resolver Affymetrix error model. […]

SK-N-FI cells = assay: SK-N-FI proliferation in vitro; type: cell-based, human; conditions: SK-N-FI cell line
Method: as §1

[8] = system: SK-N-FI renal subcapsule tumors; assay: SK-N-FI neuroblastoma renal subcapsule xenograft model; type: in vivo, mice; conditions: 37.5 mg/kg i.p. b.i.d. for 14 days, end of dosing (day 28)
Method: For SK-N-FI renal subcapsule tumors, mice were anesthetized with intramuscular injections of ketamine (40 mg/kg) and rompum (5 mg/kg) before surgery. […] The peritoneal cavity was closed with 4-0 suture and skin incision was closed with clip. Fourteen days after tumor cell injection, tumor growth was assessed in cohort mice by necropsy (see Figure 1B) and study mice were reassigned at that time to treatment groups (N = 10) based on injection order. At the end of the dosing period, tumor weight was determined by comparing the weight of the tumor bearing kidney to that of the contralateral kidney.
Figure 5 Efficacy of A-928605 in the SK-N-FI neuroblastoma xenograft as a renal subcapsule model. A, A-928605 inhibits proliferation of SK-N-FI cells in vitro. […] B, Representative photograph taken of the tumor bearing and contralateral kidneys prior to the initiation of dosing on day 14 post tumor cell injection, indicating a tumor weight of 0.07 g. C, Representative photograph taken of the tumor bearing and contralateral kidneys at the end of the dosing schedule (day 28).

IR = IR (Homo sapiens, UniProt P06213); assay: In vitro kinase panel (kinome profile), IR; type: biochemical
IR, sequence (P06213 28-1382): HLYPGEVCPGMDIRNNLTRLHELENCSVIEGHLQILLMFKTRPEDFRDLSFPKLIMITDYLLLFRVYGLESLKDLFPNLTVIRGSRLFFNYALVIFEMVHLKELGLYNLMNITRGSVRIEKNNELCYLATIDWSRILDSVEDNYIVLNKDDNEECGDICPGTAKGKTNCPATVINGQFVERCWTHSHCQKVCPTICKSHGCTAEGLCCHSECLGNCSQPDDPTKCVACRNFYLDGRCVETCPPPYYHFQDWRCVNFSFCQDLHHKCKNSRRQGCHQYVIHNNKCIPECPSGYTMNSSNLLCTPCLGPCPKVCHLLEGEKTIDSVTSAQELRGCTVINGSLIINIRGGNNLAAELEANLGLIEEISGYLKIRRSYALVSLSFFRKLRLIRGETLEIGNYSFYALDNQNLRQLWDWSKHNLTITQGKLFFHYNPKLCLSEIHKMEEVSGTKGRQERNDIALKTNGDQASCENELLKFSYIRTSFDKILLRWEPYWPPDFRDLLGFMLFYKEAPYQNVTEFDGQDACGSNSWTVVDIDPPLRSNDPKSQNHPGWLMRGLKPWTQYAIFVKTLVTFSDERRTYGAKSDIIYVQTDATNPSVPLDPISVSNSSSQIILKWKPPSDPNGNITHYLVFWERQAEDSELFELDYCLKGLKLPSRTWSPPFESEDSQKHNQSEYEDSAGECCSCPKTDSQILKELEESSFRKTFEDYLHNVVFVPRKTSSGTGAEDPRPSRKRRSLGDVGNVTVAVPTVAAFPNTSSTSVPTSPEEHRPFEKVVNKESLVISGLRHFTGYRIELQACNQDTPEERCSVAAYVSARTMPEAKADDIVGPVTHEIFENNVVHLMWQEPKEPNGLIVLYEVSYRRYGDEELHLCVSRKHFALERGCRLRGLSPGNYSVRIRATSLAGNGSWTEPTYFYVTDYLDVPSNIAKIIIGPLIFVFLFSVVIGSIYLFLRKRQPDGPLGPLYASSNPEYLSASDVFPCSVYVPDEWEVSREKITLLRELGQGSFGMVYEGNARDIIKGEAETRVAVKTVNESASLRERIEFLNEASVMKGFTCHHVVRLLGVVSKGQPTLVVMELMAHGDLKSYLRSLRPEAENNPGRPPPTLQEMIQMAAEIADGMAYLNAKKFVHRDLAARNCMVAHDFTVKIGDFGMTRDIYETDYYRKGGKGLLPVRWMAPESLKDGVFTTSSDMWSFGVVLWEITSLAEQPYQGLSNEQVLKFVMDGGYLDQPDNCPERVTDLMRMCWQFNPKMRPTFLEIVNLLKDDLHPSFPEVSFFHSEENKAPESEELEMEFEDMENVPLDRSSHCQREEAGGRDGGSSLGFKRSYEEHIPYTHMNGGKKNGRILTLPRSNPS
Method: (§3) Figure 1 Chemical structure and activity of A-928605. A, The chemical name of A-928605 is 3-(2-(2-chlorobenzyl)-1 H-benzo [d]imidazol-5-yl)-1-((1 r, 4 r)-4-morpholinocyclohexyl)-1 H-pyrazolo [3,4-d]pyrimidin-4-amine. B, Kinome profile analysis of A-928605 on 156 unique kinases. Heat map colors correspond to the relative Ki against each kinase, where Ki greater than 1,000 nM are colored green, near 100 nM are yellow and Ki of roughly 10 nM are shaded red.

CD8 IGF1R flank tumors = assay: CD8-IGF1R xenograft flank model; type: in vivo, mice; conditions: 50 mg/kg i.p. b.i.d. for 10 days, end of dosing (day 26)
Source text: Figure 4 A-928605 abrogates modifications of IGF pathway signaling proteins in vitro and is efficacious in the CD8-IGF1R xenograft flank model in vivo. […] Cyclin D1 is a transcriptional target of the IGF signaling pathway and is therefore not affected by this one hour treatment.

IGF1R = IGF1R (Homo sapiens, UniProt P08069); assay: In vitro kinase panel (kinome profile), IGF1R; type: biochemical
IGF1R, sequence (P08069 31-1367, species assumed): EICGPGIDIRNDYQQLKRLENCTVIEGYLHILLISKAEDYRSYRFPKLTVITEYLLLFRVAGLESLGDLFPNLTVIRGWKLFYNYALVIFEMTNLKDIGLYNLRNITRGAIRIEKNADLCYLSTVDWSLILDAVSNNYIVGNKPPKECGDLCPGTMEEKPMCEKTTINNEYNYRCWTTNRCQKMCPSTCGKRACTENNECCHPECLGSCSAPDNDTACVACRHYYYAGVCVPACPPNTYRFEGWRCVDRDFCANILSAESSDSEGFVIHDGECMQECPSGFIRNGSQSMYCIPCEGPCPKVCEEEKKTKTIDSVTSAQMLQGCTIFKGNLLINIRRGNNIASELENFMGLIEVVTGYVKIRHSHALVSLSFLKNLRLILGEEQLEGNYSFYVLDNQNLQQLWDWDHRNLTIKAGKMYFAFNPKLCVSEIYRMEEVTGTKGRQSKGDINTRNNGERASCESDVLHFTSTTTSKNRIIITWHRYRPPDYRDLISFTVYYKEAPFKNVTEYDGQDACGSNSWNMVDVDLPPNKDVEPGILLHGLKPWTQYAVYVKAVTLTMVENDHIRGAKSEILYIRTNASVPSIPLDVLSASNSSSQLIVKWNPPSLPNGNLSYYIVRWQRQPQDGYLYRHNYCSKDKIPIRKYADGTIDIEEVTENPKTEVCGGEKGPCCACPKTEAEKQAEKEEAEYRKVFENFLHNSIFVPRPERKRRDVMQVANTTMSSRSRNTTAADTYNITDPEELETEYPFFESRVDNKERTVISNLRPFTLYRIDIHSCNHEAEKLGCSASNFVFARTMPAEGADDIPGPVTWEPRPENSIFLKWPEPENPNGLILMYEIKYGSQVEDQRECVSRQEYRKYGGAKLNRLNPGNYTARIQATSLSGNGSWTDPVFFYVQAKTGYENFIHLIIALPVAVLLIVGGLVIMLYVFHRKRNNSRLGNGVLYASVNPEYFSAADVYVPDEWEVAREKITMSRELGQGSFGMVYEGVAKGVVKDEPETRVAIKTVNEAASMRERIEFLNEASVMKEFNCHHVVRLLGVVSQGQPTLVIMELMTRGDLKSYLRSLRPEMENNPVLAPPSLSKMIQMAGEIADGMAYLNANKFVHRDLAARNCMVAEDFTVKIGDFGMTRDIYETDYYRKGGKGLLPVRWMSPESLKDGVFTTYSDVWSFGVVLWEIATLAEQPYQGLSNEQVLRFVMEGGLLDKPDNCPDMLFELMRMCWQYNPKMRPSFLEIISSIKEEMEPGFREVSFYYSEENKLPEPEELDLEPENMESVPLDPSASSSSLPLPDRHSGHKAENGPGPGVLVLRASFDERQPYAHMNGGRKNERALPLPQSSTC
Method: as §3

HCC-827 flank tumors = assay: HCC-827 NSCLC xenograft flank model
Method: All animal studies were conducted in accordance with the guidelines established by the internal Institutional Animal Care and Use Committees. For CD8 IGF1R flank tumors, 5.0 × 10^5 cells/mouse were mixed with an equal volume of Matrigel (BD Biosciences) and injected subcutaneously into the flank of 6- to 8-week-old female nu/nu mice (22 g; Charles River Laboratories). The tumors were allowed to grow approximately 225 mm^3, and mice were reassigned into treatment groups (N = 10) based on tumor volume. At the initiation of treatment, the mean tumor volume ± SEM of the groups was approximately 231 ± 10 mm^3. For MiaPaCa-2 flank tumors, 1.0 × 10^6 cells/mouse were mixed with an equal volume of Matrigel and injected subcutaneously into the flank of 6- to 8-week-old female SCID mice (20 g; Charles River Laboratories). The tumors were allowed to grow approximately 225 mm^3, and mice were reassigned into treatment groups (N = 10) based on tumor volume. At the initiation of treatment, the mean tumor volume ± SEM of the groups was approximately 210 ± 30 mm^3. […] The tumors were allowed to grow approximately 225 mm^3, and mice were reassigned into treatment groups (N = 10) based on tumor volume. At the initiation of treatment, the mean tumor volume ± SEM of the groups was approximately 300 ± 20 mm^3. In all flank models, tumor growth was periodically analyzed by measurement with digital calipers and tumor volume was estimated from the formula (L × W ^2)/2. For all flank models, the effect of treatment on tumor growth rate was assessed by determining %T/C [(mean tumor volume of treated group on day X ÷ mean tumor volume of control group on day X) × 100].
Erlotinib was dosed orally at 3.1 mg/kg, b.i.d. for 16 days.

SMILES: Cc1nc(Nc2ncc(C(=O)Nc3c(C)cccc3Cl)s2)cc(N2CCN(CCO)CC2)n1 [Dasatinib, reference compound]
effect on cellular proliferation (NIH-3T3 CD8-IGF1R cells [1]; CD8-IGF1R line, concentrations up to 10 μM): no effect
effect on cellular proliferation [2]: potent inhibitor

IC50s against IGF1R versus IR (IGF1R and IR): roughly equipotent
Cyclin D1 expression (CD8-IGF1R; 24-hours of treatment): significant decrease
IC50 (CD8-IGF1R; CD8-IGF1R cell line, 1 hour treatment, inhibition near known cellular IC50, read-out: cellular phosphorylation IC50 (dose-dependent inhibition of IGF1R phosphorylation)): ~100 nM
phosphorylation of the IGF1R cytotail, AKT and ERK1/2 (CD8-IGF1R; one hour of treatment, CD8-IGF1R cells): inhibition of phosphorylation
IC50 [5]: > 10000 nM
IC50 [6]: > 10000 nM
Ki (IR): < 10 nM
Ki (IGF1R): < 10 nM
SMILES: Nc1ncnc2c1c(-c1ccc3[nH]c(Cc4ccccc4Cl)nc3c1)nn2[C@H]1CC[C@H](N2CCOCC2)CC1 [A-928605, 3-(2-(2-chlorobenzyl)-1 H-benzo [d]imidazol-5-yl)-1-((1 r, 4 r)-4-morpholinocyclohexyl)-1 H-pyrazolo [3,4-d]pyrimidin-4-amine]
transformed phenotype (morphology) (NIH-3T3 CD8-IGF1R cells [3]): reversal of their transformed phenotype
%T/C, monotherapy compared to appropriate controls (MiaPaCa-2 flank tumors): approximately 80%
inhibition of anchorage-independent growth in soft agar (NIH-3T3 CD8-IGF1R cells [4]): completely inhibiting; also recorded: inhibits growth
decrease in Ccn d1 transcripts (NIH-3T3 CD8-IGF1R cells [7]): 4.8 fold
up-regulation of Cdkn1a (p21) (NIH-3T3 CD8-IGF1R cells [7]): 1.5 fold
inhibition of proliferation in vitro (SK-N-FI cells): effectively inhibit proliferation
%T/C (tumor weight, treated vs. vehicle) [8]: 58%
IC50 (NIH-3T3 CD8-IGF1R cells [1]; Mus musculus, NIH3T3, CD8-IGF1R cells, 72 hours, read-out: IC50, inhibition of cellular proliferation): < 300 nM
%T/C (tumor volume, treated vs. vehicle) (CD8 IGF1R flank tumors): 21%
effect on cellular proliferation [2]: little effect
tumor response in words (HCC-827 flank tumors; size-matched HCC827 xenografts, 16 days dosing): not consistently statistically different from its vehicle control; also recorded: partial responses

SMILES: C#Cc1cccc(Nc2ncnc3cc(OCCOC)c(OCCOC)cc23)c1 [erlotinib, reference compound]
tumor response in words (HCC-827 flank tumors; mouse, in vivo): partial responses
